The record followed here is US20010010818A1, “Methods and formulations for reducing circulating antibodies” (priority 1998, published 2001).

Some results are limits rather than exact numbers.

The test system of assay [1] is anti-αGal Ig. Description: Removal of anti-αGal Ig from serum by αGal epitope on resin (Sepharose), measured by FACS. It is filed as binding, human. The following applies: epitope on resin (coupled to Sepharose). Here is the method: (§1) Antibodies. Blood was drawn from healthy normal volunteers. Plasma was separated by centrifugation and allowed to clot. Fibrin was removed and plasma was used immediately or stored in aliquots at −70° C. Rhesus monkey serum (California Regional Primate Research Center, Davis, Calif.) was obtained from blood drawn into vacutainer tubes and allowed to clot. After serum was separated by centrifugation, it was pooled, aliquoted and stored at −20° C. or −70° C. In some experiments, sera was heat-inactivated at 56° C. for 30 minutes to destroy complement hemolytic activity. Antibodies to the αGal epitope were affinity purified on an αGal-Sepharose column, which was prepared by coupling αGal-SH to maleimide-Sepharose (Pierce) through Michael addition chemistry at 10 mg/mL resin. Up to 20 mL pooled NHS […] was applied to a 2 mL volume of packed αGal-Sepharose. After the flow through was collected, the column was washed with 10-20 column volumes or until A280 reached baseline values and eluted with 0.1 M triethanolamine, pH 11.5 into tubes containing 1 M Tris, pH 8.0. The column was immediately washed with 10-20 volumes of phosphate-buffered saline (PBS). Fractions were assessed for protein concentration by Bradford assay. Peak fractions were pooled and dialyzed against PBS. […]
Background: A flow cytometer gives signals particle by particle.

Assay [2] deals with anti-αGal Ig. Described as above. The class given is binding, rhesus monkey. The conditions noted are these: epitope on resin (coupled to Sepharose). Here is the method: as §1

Consider `OC[C@H]1O[C@H](O[C@H]2[C@@H](O)[C@@H](CO)O[C@@H](OCCOCCOCCS)[C@@H]2O)[C@H](O)[C@@H](O)[C@H]1O` [αGal epitope, 2-[2-(2-thioethoxy)ethoxy]ethyl 3-O-(α-D-galactopyranosyl)-β-D-galactopyranoside], for which the “removal of anti-αGal Ig from human serum” value with anti-αGal Ig [1] is recorded as more than 95%. For the same compound, the “removal of anti-αGal Ig from normal rhesus monkey serum” value with anti-αGal Ig [2] is more than 95%.
